Patent US10952963B2, “Ready to use liquid RECK formulation” (QuVa Pharma, Inc., priority 2018, dated 2021)

Details: for pH that provides for acceptable stability: pH 4.8
Procedure: Multiple antioxidants, chelating agents, and buffers were evaluated to stabilize both epinephrine and ketorolac, which include: sodium bisulfite, sodium metabisulfite, EDTA Sodium Dihydrate (i.e., EDTA Sodium), citric acid, sodium phosphate dibasic, and PEG 400. Solution pH values were evaluated from a pH of 3.9-6.0.

| SMILES | pH range of maximum stability | pH at which substantial degradation occurs | pH that provides for acceptable stability | pH at which rate of degradation increases | pH at which substance tended to degrade | sodium metabisulfite concentration in the presence of which the substance degrades substantially [mg/mL] |
| --- | --- | --- | --- | --- | --- | --- |
| CCCN1CCCC[C@H]1C(=O)Nc1c(C)cccc1C [ropivacaine] | 3-4 |  |  |  |  |  |
| Clc1cccc(Cl)c1N=C1NCCN1 [clonidine] | 3-4 |  |  |  |  |  |
| CNC[C@H](O)c1ccc(O)c(O)c1 [epinephrine] | 3-4 | greater than 4 | about 4.8 |  |  |  |
| O=C(c1ccccc1)c1ccc2n1CCC2C(=O)O (stereo not shown) [ketorolac] | 6-7 |  | about 4.8 | less than 5 | less than 4.5 | ≥ 1 |
